Test results taken from PubChem BioAssay (NCI).
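Results reflect a 48-hour exposure of cells in 96-well plates to compound at five concentrations. TGI: concentration producing complete growth inhibition.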 Peptide text beside a SMILES is read from it. * marks the point of attachment. OSu = O=C1CCC(=O)N1O*; OBn = c1ccc(CO*)cc1; Bn = c1ccc(C*)cc1

Columns and labels:
Assay in all cases: growth of human tumour cells (NCI), 48 h
[1] = tested on: OVCAR-5 ovarian
[2] = tested on: HCT-116 colon
[3] = tested on: RXF 393 renal
[4] = tested on: SK-MEL-2 melanoma
[5] = tested on: HT29 colon
[6] = tested on: MDA-N
[7] = tested on: HOP-92 NSCLC
[8] = tested on: TK-10 renal
[9] = tested on: KM12 colon
[10] = tested on: SR leukemia
[11] = tested on: 786-0 renal

Row | SMILES | TGI [1] | TGI [2] | TGI [3] | TGI [4] | TGI [5] | TGI [6] | TGI [7] | TGI [8] | TGI [9] | TGI [10] | TGI [11]
1 | O=C(O)C(CO)NC(=O)C1C(C(=O)O)C(c2ccccc2[N+](=O)[O-])C=C(c2ccco2)N1c1ccncc1 (stereo unspecified) | 25.4 µM | 3.08 µM | 3.12 µM | 31 µM | 3.66 µM | 8.42 µM | 25.7 µM | 9.48 µM | 3.35 µM | > 100 µM | 6.01 µM
2 | CC(C)C(/C=C/c1ccccc1)=N\NC(=S)NN | > 100 µM | > 100 µM | > 100 µM | > 100 µM | > 100 µM | > 31.6 µM | > 100 µM | > 100 µM | > 100 µM | > 100 µM | > 100 µM
3 | CC(C)(C)c1cc(C2NC(=O)NC2=O)cc(C(C)(C)C)c1O (stereo unspecified) | > 100 µM | 84.5 µM | 95.7 µM | > 100 µM | > 100 µM | > 100 µM | > 100 µM | 95.2 µM | 48.4 µM | > 100 µM | –
4 | O=C1/C(=C2\SCC(=O)N2c2ccccc2)SC(=S)N1c1ccccc1 | > 100 µM | > 100 µM | > 100 µM | > 100 µM | > 100 µM | > 100 µM | 82.7 µM | > 100 µM | > 100 µM | 29.6 µM | > 100 µM
5 | C=C1[C@H](OCC(C)C)[C@@H](OC(=O)C(C)CC)[C@@H](O)C(C)(C)/C=C/[C@H](C)C(=O)[C@@]2(O)C[C@H](C)[C@H](O)[C@@H]2[C@H]1OC(=O)C(C)CC (stereo partly specified) | > 17.7 µM | > 20 µM | > 20 µM | > 15 µM | 9.87 µM | > 20 µM | > 20 µM | > 19.3 µM | > 13.6 µM | > 10.5 µM | > 20 µM
6 | C/C(=N\NC(=O)N/N=C(\C)c1ccccn1)c1ccccn1 | > 100 µM | > 100 µM | > 100 µM | > 100 µM | > 100 µM | > 100 µM | > 100 µM | – | > 100 µM | > 100 µM | > 51.5 µM
7 | Cc1ccc(C2(c3ccc(C)c(O)c3C)CCN(C)CC2)c(C)c1O | > 100 µM | > 100 µM | > 100 µM | 75.9 µM | > 100 µM | > 100 µM | > 100 µM | 74.4 µM | > 100 µM | > 100 µM | > 100 µM
8 | C/C(NC(=O)c1ccccc1)=C(/C(=O)c1ccccc1)[C@@H]1OC(C)(C)O[C@@H]1[C@H]1COC(C)(C)O1 | > 100 µM | 52.5 µM | > 100 µM | 54.9 µM | 86.3 µM | 39.1 µM | 86.6 µM | > 100 µM | > 100 µM | 38.5 µM | 39.7 µM
9 | OCCNc1nc2c(N3CCCC3)nc(N3CCNCC3)nc2nc1NCc1ccccc1 | 24.7 µM | 21.9 µM | 24.7 µM | 28.7 µM | 21.7 µM | 24.7 µM | 21.8 µM | 28.7 µM | 25.5 µM | 32.7 µM | 28 µM
10 | COc1cccc(/C=N/n2c(Cc3ccc(Cl)cc3)n[nH]c2=O)c1 | > 100 µM | > 100 µM | 11.2 µM | 58.6 µM | 34 µM | > 100 µM | 52.1 µM | > 100 µM | > 100 µM | > 100 µM | > 71.9 µM
11 | CCOC(=O)C1=CN(C(=O)c2ccccc2)CCC1Cc1ccccc1 (stereo unspecified) | > 100 µM | 84.4 µM | 61.8 µM | 35.9 µM | 35.1 µM | 44.4 µM | 54.5 µM | 75.3 µM | > 100 µM | 37.5 µM | > 100 µM
12 | CC(=O)N1C(OCc2ccccc2)CCN1c1ccccc1 (stereo unspecified) | > 10 µM | > 10 µM | > 10 µM | > 10 µM | > 10 µM | > 10 µM | > 10 µM | > 10 µM | – | > 10 µM | > 10 µM
13 | Cn1c(=O)c2[nH]c(-n3nc(-c4ccccc4)cc3N)nc2n(C)c1=O | > 100 µM | > 100 µM | > 100 µM | 47.2 µM | > 100 µM | > 100 µM | 74.9 µM | > 100 µM | > 100 µM | > 100 µM | > 100 µM
14 | CCc1cc2c(oc3c4ccccc4ccc23)c(=O)[nH]1 | > 10 µM | > 10 µM | > 10 µM | – | > 10 µM | > 10 µM | > 10 µM | > 10 µM | > 10 µM | > 10 µM | > 10 µM
15 | Cc1ccc(CC(=O)Nc2ccc(NC(=O)CNC(=O)/C=C/c3ccc(-c4ccccc4)cc3)cc2C(=O)c2ccccc2)cc1 | 23.1 µM | 2.65 µM | 6.6 µM | 35.3 µM | 2.99 µM | 20.9 µM | 15.4 µM | 5.95 µM | 14.5 µM | 4.95 µM | 5.48 µM
16 | Nc1ccc(-c2nc3cc(F)ccc3s2)cc1 | > 92.8 µM | > 100 µM | > 100 µM | > 100 µM | > 100 µM | > 100 µM | > 93.1 µM | > 93.1 µM | > 100 µM | > 100 µM | > 100 µM
17 | c1cn[nH]c1 | – | > 10 µM | > 10 µM | > 10 µM | > 10 µM | > 10 µM | > 10 µM | > 10 µM | > 10 µM | > 10 µM | > 10 µM
18 | Cc1nc2sccn2c1C(=O)OCCOCCOCCOCCOC(=O)c1c(C)nc2sccn12 | > 100 µM | > 100 µM | > 100 µM | > 100 µM | > 100 µM | > 100 µM | > 100 µM | > 100 µM | > 100 µM | > 100 µM | > 100 µM

Row | SMILES | TGI [1] | TGI [2] | TGI [3] | TGI [4] | TGI [5] | TGI [6] | TGI [7] | TGI [8] | TGI [9] | TGI [10] | TGI [11]
19 | Clc1cccc(N=C/C=C/Nc2cccc(Cl)c2)c1 | 59.9 µM | 28.2 µM | 52.5 µM | – | 34 µM | 26.8 µM | > 100 µM | > 100 µM | 27.1 µM | 62.3 µM | 37.4 µM
20 | CN1N(c2ccccc2)C(=O)C2=NC=C(C#N)C(=N)C21C (stereo unspecified) | > 100 µM | > 100 µM | > 100 µM | > 100 µM | – | > 100 µM | > 100 µM | > 100 µM | > 100 µM | > 100 µM | > 100 µM
21 | COc1cc(C2c3cc4c(cc3OC(N3CCOCC3)C2C)OCO4)cc(OC)c1OC(C)=O (stereo unspecified) | > 100 µM | 60.8 µM | > 62.1 µM | 41.1 µM | 57.9 µM | 4.94 µM | > 100 µM | > 100 µM | > 100 µM | > 72 µM | > 100 µM
22 | Cc1ccc(NC(=O)CC(=O)N2N=C(c3ccccc3)C(N=Nc3ccc(S(=O)(=O)CCOS(=O)(=O)O)cc3)C2=O)cc1 (stereo unspecified) | > 100 µM | > 100 µM | > 100 µM | > 100 µM | > 100 µM | > 100 µM | > 100 µM | > 100 µM | > 100 µM | > 100 µM | > 100 µM
23 | Cc1[nH]c(=O)[nH]c(=O)c1C(=O)N(CCO)Cc1ccccc1 | > 100 µM | > 100 µM | 83.6 µM | > 100 µM | > 100 µM | > 100 µM | > 100 µM | > 100 µM | > 100 µM | > 100 µM | –
24 | CC(CN(C)C)C(=O)/C=C/c1ccc(Cl)c(Cl)c1 (stereo unspecified) | 4.07 µM | 2.99 µM | 40.8 µM | 4.19 µM | – | 6.03 µM | 3.48 µM | 4.63 µM | 3.23 µM | 6.25 µM | 2.01 µM
25 | COC1=CCC2=C(CCN(C(=O)C3CCC3)C2Cc2ccc(OC)c(O)c2)C1 (stereo unspecified) | 92 µM | 48.6 µM | 21.2 µM | > 100 µM | 43.8 µM | 9.04 µM | 79.4 µM | 64.5 µM | > 100 µM | > 100 µM | 47.4 µM
26 | CC(C)CC(NC(=O)C(N)CCC(=O)OCc1ccccc1)C(=O)NC(COCc1ccccc1)C(=O)NC(Cc1ccccc1)C(=O)ON1C(=O)CCC1=O (stereo unspecified) (H-E(OBn)LS(Bn)F-OSu; configuration not given here) | 66.9 µM | 33.1 µM | 78.2 µM | 65.6 µM | > 100 µM | 47.6 µM | 39.8 µM | 73.8 µM | > 100 µM | 85.4 µM | > 100 µM
27 | O=[N+]([O-])c1cc(Cl)ccc1S(=O)(=O)c1cc(Cl)cc2c1NCCC2 | > 100 µM | > 100 µM | > 100 µM | > 100 µM | > 100 µM | > 100 µM | > 100 µM | > 100 µM | > 100 µM | > 100 µM | > 100 µM
28 | CC(C)(CN1CCCCC1)C(=O)/C=C/c1c(Cl)cccc1Cl | 2.97 µM | 2.02 µM | 2.39 µM | 3.73 µM | 2.89 µM | 2.38 µM | 2.34 µM | 1.77 µM | 2.36 µM | > 100 µM | 2.89 µM
29 | c1ccc(-c2nc3ccccc3n3nnnc23)cc1 | > 100 µM | > 100 µM | > 100 µM | > 100 µM | > 100 µM | > 100 µM | > 100 µM | > 100 µM | > 100 µM | > 100 µM | > 100 µM
30 | Cc1nc(N)nc(N)c1N1CCN(Cc2ccccc2)CC1 | > 100 µM | > 100 µM | > 100 µM | > 100 µM | > 100 µM | > 100 µM | > 100 µM | > 100 µM | > 100 µM | > 100 µM | > 100 µM
31 | CCOC(=O)/C=C(/C(=O)OCC)n1ccc(=O)[nH]c1=O | 14.4 µM | 7.14 µM | 13.8 µM | 30.4 µM | 36 µM | 25.6 µM | 4.32 µM | 10.5 µM | 34.8 µM | 16.8 µM | 11.3 µM
32 | CCOC(=O)O/N=C1/C(c2c(O)[nH]c3ccccc23)=Nc2ccccc21 | 56.2 µM | 13.6 µM | 6.16 µM | 8.18 µM | 46.7 µM | 19.3 µM | > 100 µM | 24 µM | 13.8 µM | > 100 µM | 28 µM
33 | CCOC(=O)C12C(=O)CCN1CCc1ccccc1C2C (stereo unspecified) | > 100 µM | > 100 µM | > 100 µM | > 100 µM | > 100 µM | > 100 µM | > 100 µM | > 100 µM | > 100 µM | > 100 µM | > 100 µM
34 | O=C1C=C(NCCc2cc(Br)c(O)c(Br)c2)C(=O)c2[nH]cnc21 | 67.2 µM | 43.9 µM | 98 µM | > 100 µM | 80.8 µM | 33.6 µM | 82.3 µM | > 100 µM | > 100 µM | > 100 µM | > 100 µM
35 | Cc1nc2ccccc2cc1C[N+]12CN3CN(CN(C3)C1)C2 | 57.8 µM | 33.2 µM | 40.4 µM | 39.8 µM | 60.8 µM | 65.6 µM | > 100 µM | 63.4 µM | 45.8 µM | > 100 µM | 37.8 µM
36 | CC(=O)C(C(=O)C(C)(C)C)C(=O)C(C)(C)C | > 100 µM | > 100 µM | > 100 µM | > 100 µM | – | > 100 µM | > 100 µM | > 100 µM | > 100 µM | > 100 µM | > 100 µM
